According to patent US20240270695A1, “COMPOUNDS, COMPOSITIONS AND METHODS OF TREATING DISORDERS” (Chengdu Anticancer Bioscience LTD, priority 2021, published 2024):
Where two headings read alike, the source gives them in different places.

System: RPE-Neo or RPE-MYC or RPE-MYC expressing an EGFP-Histone 2B fusion protein
Assay: Phenotypic screening assay (arrest in mitosis, change in DNA content, cell death; GE IN-Cell Analyzer 2000)
Assay type: cell-based
Details: Homo sapiens, compounds 20 nM to 20 μM, 24, 48 or 72 hours
[1] = read-out: Min. Effective conc. for Polyploidy (≥10%)
[2] = min. effective conc., read-out: Cell Death (>30%)
[3] = min. effective conc., read-out: Mitotic Arrest (≥10%)

SMILES | minimal effective concentration [1] [µM] | minimal effective concentration [2] [µM] | minimal effective concentration [3] [µM]
COC(=O)C1=C(O)c2ccccc2N(Cc2ccc(C(C)C)cc2)C(=O)C1 [Example 30, Methyl 5-hydroxy-1-(4-isopropylbenzyl)-2-oxo-2,3-dihydro-1H-benzo[b]azepine-4-carboxylate] | 10 to 30 | 10 to 30 | 10 to 30
Cc1ccc(CN2C(=O)CC(C(=O)C(F)(F)F)=C(O)c3ccccc32)cc1F [Example 68, 1-(3-fluoro-4-methylbenzyl)-5-hydroxy-4-(2,2,2-trifluoroacetyl)-1,3-dihydro-2H-benzo[b]azepin-2-one] | 10 to 30 | 10 to 30 | 10 to 30
COC(=O)C1=C(O)c2ccccc2N(Cc2ccc(C)c(Cl)c2)C(=O)C1 [Example 45, Methyl 1-(3-chloro-4-methylbenzyl)-5-hydroxy-2-oxo-2,3-dihydro-1H-benzo[b]azepine-4-carboxylate] | 1 to 10 | 1 to 10 | 1 to 10
COC(=O)C1=C(O)c2ccccc2N(Cc2ccc(OC)cc2)C(=O)C1 [Example 34, Methyl 5-hydroxy-1-(4-methoxybenzyl)-2-oxo-2,3-dihydro-1H-benzo[b]azepine-4-carboxylate] | 0.001 to 1 | 0.001 to 1 | 0.001 to 1
COC(=O)C1=C(O)c2ccccc2N(Cc2ccc(OC)c(OC)c2)C(=O)C1 [Example 51, Methyl 1-(3,4-dimethoxybenzyl)-5-hydroxy-2-oxo-2,3-dihydro-1H-benzo[b]azepine-4-carboxylate] | 30 to 1000 | 30 to 1000 | 30 to 1000
Cc1ccc(CN2C(=O)CC(C(=O)C(C)(C)C)=C(O)c3ccccc32)cc1F [Example 60, 1-(3-fluoro-4-methylbenzyl)-5-hydroxy-4-pivaloyl-1,3-dihydro-2H-benzo[b]azepin-2-one] | 1 to 10 | 1 to 10 | 1 to 10
COC(=O)C1=C(O)c2ccccc2N(Cc2cccc(F)c2F)C(=O)C1 [Example 22, Methyl 1-(2,3-difluorobenzyl)-5-hydroxy-2-oxo-2,3-dihydro-1H-benzo[b]azepine-4-carboxylate] |  | 30 to 1000 | 
Cc1ccc(CN2C(=O)CC(C(=O)C(C)C)=C(O)c3ccccc32)cc1F [Example 59, 1-(3-fluoro-4-methylbenzyl)-5-hydroxy-4-isobutyryl-1,3-dihydro-2H-benzo[b]azepin-2-one] | 0.001 to 1 | 0.001 to 1 | 0.001 to 1
COC(=O)C1=C(O)c2ccccc2N(Cc2ccc3ccccc3c2)C(=O)C1 [Example 14, Methyl 5-hydroxy-1-(naphthalen-2-ylmethyl)-2-oxo-2,3-dihydro-1H-benzo[b]azepine-4-carboxylate] | 1 to 10 | 1 to 10 | 1 to 10
Cc1ccc(CN2C(=O)CC(C(=O)NC(C)C)=C(O)c3ccccc32)cc1F [Example 65, 1-(3-fluoro-4-methylbenzyl)-5-hydroxy-N-isopropyl-2-oxo-2,3-dihydro-1H-benzo[b]azepine-4-carboxamide] | 1 to 10 | 1 to 10 | 1 to 10
COC(=O)C1=C(O)c2ccccc2N(Cc2ccc(C)c(C)c2)C(=O)C1 [Example 36, Methyl 1-(3,4-dimethylbenzyl)-5-hydroxy-2-oxo-2,3-dihydro-1H-benzo[b]azepine-4-carboxylate] | 10 to 30 | 10 to 30 | 10 to 30
CCC(=O)C1=C(O)c2ccccc2N(Cc2ccc(C)c(F)c2)C(=O)C1 [Example 55, 1-(3-fluoro-4-methylbenzyl)-5-hydroxy-4-propionyl-1,3-dihydro-2H-benzo[b]azepin-2-one] | 0.001 to 1 |  | 0.001 to 1
COC(=O)C1=C(O)c2ccccc2N(Cc2cccc(OC)c2)C(=O)C1 [Example 27, Methyl 5-hydroxy-1-(3-methoxybenzyl)-2-oxo-2,3-dihydro-1H-benzo[b]azepine-4-carboxylate] | 10 to 30 |  | 10 to 30
CCCCc1ccc(CN2C(=O)CC(C(=O)OC)=C(O)c3ccccc32)cc1 [Example 50, Methyl 1-(4-butylbenzyl)-5-hydroxy-2-oxo-2,3-dihydro-1H-benzo[b]azepine-4-carboxylate] | 10 to 30 | 10 to 30 | 10 to 30
CNC(=S)C1=C(O)c2ccccc2N(Cc2ccc(C)c(F)c2)C(=O)C1 [Example 67, 1-(3-fluoro-4-methylbenzyl)-5-hydroxy-N-methyl-2-oxo-2,3-dihydro-1H-benzo[b]azepine-4-carbothioamide] | 10 to 30 | 10 to 30 | 10 to 30
Cc1ccc(CN2C(=O)CC(C(=O)C3CC3)=C(O)c3ccccc32)cc1F [Example 58, 4-(cyclopropanecarbonyl)-1-(3-fluoro-4-methylbenzyl)-5-hydroxy-1,3-dihydro-2H-benzo[b]azepin-2-one] | 0.001 to 1 | 0.001 to 1 | 0.001 to 1
COC(=O)C1=C(O)c2ccccc2N(Cc2ccccc2)C(=O)C1 [Example 1, Methyl 1-benzyl-5-hydroxy-2-oxo-2,3-dihydro-1H-benzo[b]azepine-4-carboxylate] | 30 to 1000 |  | 30 to 1000
Cc1ccc(CN2C(=O)CC(C(=O)NC3CCCCC3)=C(O)c3ccccc32)cc1F [Example 66, N-cyclohexyl-1-(3-fluoro-4-methylbenzyl)-5-hydroxy-2-oxo-2,3-dihydro-1H-benzo[b]azepine-4-carboxamide] | 10 to 30 | 10 to 30 | 10 to 30
COC(=O)C1=C(O)c2cc(OC)c(OC)cc2N(Cc2ccc(C)c(F)c2)C(=O)C1 [Example 54, Methyl 1-(3-fluoro-4-methylbenzyl)-5-hydroxy-7,8-dimethoxy-2-oxo-2,3-dihydro-1H-benzo[b]azepine-4-carboxylate] | 0.001 to 1 | 0.001 to 1 | 0.001 to 1
CC(=O)C1=C(O)c2ccccc2N(Cc2ccc(C)c(F)c2)C(=O)C1 [Example 56, 4-acetyl-1-(3-fluoro-4-methylbenzyl)-5-hydroxy-1,3-dihydro-2H-benzo[b]azepin-2-one] | 1 to 10 |  | 1 to 10
COC(=O)C1=C(O)c2ccccc2N(Cc2ccc(F)cc2)C(=O)C1 [Example 10, Methyl 1-(4-fluorobenzyl)-5-hydroxy-2-oxo-2,3-dihydro-1H-benzo[b]azepine-4-carboxylate] | 30 to 1000 |  | 30 to 1000
CNC(=O)C1=C(O)c2ccccc2N(Cc2ccc(C)c(F)c2)C(=O)C1 [Example 63, 1-(3-fluoro-4-methylbenzyl)-5-hydroxy-N-methyl-2-oxo-2,3-dihydro-1H-benzo[b]azepine-4-carboxamide] | 1 to 10 | 1 to 10 | 1 to 10
COC(=O)C1=C(O)c2ccccc2N(Cc2ccc(C)c(F)c2)C(=O)C1 [Example 41, Methyl 1-(3-fluoro-4-methylbenzyl)-5-hydroxy-2-oxo-2,3-dihydro-1H-benzo[b]azepine-4-carboxylate] | 0.001 to 1 | 0.001 to 1 | 0.001 to 1
COC(=O)C1=C(O)c2ccccc2N(Cc2cccc(C)c2)C(=O)C1 [Example 5, Methyl 5-hydroxy-1-(3-methylbenzyl)-2-oxo-2,3-dihydro-1H-benzo[b]azepine-4-carboxylate] | 30 to 1000 | 30 to 1000 | 30 to 1000
Cc1ccc(CN2C(=O)CC(C(=O)C3CCCO3)=C(O)c3ccccc32)cc1F (stereo not drawn) [Example 62, 1-(3-fluoro-4-methylbenzyl)-5-hydroxy-4-(tetrahydrofuran-2-carbonyl)-1,3-dihydro-2H-benzo[b]azepin-2-one] | 1 to 10 | 1 to 10 | 1 to 10
COC(=O)C1=C(O)c2ccccc2N(Cc2ccc(C)cc2)C(=O)C1 [Example 7, Methyl 5-hydroxy-1-(4-methylbenzyl)-2-oxo-2,3-dihydro-1H-benzo[b]azepine-4-carboxylate] | 0.001 to 1 | 0.001 to 1 | 0.001 to 1
COC(=O)C1=C(O)c2cnccc2N(Cc2ccc(C)c(F)c2)C(=O)C1 [Example 53, Methyl 1-(3-fluoro-4-methylbenzyl)-5-hydroxy-2-oxo-2,3-dihydro-1H-pyrido[4,3-b] azepine-4-carboxylate] | 1 to 10 | 1 to 10 | 1 to 10
COC(=O)C1=C(O)c2ccccc2N(Cc2c(C)cccc2C)C(=O)C1 [Example 16, Methyl 1-(2,6-dimethylbenzyl)-5-hydroxy-2-oxo-2,3-dihydro-1H-benzo[b]azepine-4-carboxylate] |  | 30 to 1000 | 
COC(=O)C1=C(O)c2ccccc2N(Cc2ccccc2C)C(=O)C1 [Example 35, Methyl 5-hydroxy-1-(2-methylbenzyl)-2-oxo-2,3-dihydro-1H-benzo[b]azepine-4-carboxylate] | 30 to 1000 | 30 to 1000 | 30 to 1000
COC(=O)C1=C(O)c2ccccc2N(Cc2ccc(C)c(Br)c2)C(=O)C1 [Example 46, Methyl 1-(3-bromo-4-methylbenzyl)-5-hydroxy-2-oxo-2,3-dihydro-1H-benzo[b]azepine-4-carboxylate] | 1 to 10 | 1 to 10 | 1 to 10
